This assay has as its target T1, human TLX (Homo sapiens, UniProt Q9Y466).
T1 construct: expressed in transfected cells; host or cells: HEK293T
Briefly: Gal4 hybrid reporter gene assay (TLX modulation). It is filed as cell-based. Further details: key to relative reporter activity: fraction of DMSO control (DMSO = 1). The following applies: for EC50: Gal4-TLX hybrid reporter in HEK293T cells, 16 h incubation; for relative reporter activity: DMSO control = 1. As for the experimental part:
In the Tables, the TLX relative reporter activity is expressed as EC50 (in µM) for each listed compound. "EC50" refers to a measure of the concentration of a compound which induces a biological response halfway between the baseline and maximum after a specified exposure time. […] The EC50 is measured via a hybrid reporter gene assay, employing the transfection of a reporter (firefly luciferase with Gal4 response element), a control gene (Renilla luciferase), a transcriptional activator (Gal4-VP16) and a hybrid receptor consisting of the TLX ligand binding domain (LBD) and the Gal4 DNA binding domain (DBD).
Hybrid reporter gene assays. […] After 24 h, medium was changed to Opti-MEM without supplements and cells were transiently transfected using Lipofectamine LTX reagent (Invitrogen, Carlsbad, CA, USA) according to the manufacturer's protocol. Five hours after transfection, cells were incubated with the test compounds in Opti-MEM supplemented with penicillin (100 U/mL), streptomycin (100 µg/mL) and 0.1% DMSO for 16 h before luciferase activity was measured using the Dual-Glo Luciferase Assay System (Promega) according to the manufacturer's protocol on a Tecan Spark luminometer (Tecan Deutschland GmbH, Crailsheim, Germany). Firefly luminescence was divided by Renilla luminescence and multiplied by 1000 resulting in relative light units (RLU) to normalize for transfection efficiency and cell growth. Fold activation was obtained by dividing the mean RLU of test compound by the mean RLU of the untreated control. All samples were tested in at least three biologically independent experiments in duplicates. For dose-response curve fitting and calculation of EC50 values, the equation "[Agonist] vs. response -- Variable slope (four parameters)" was used in GraphPad Prism (version 7.00, GraphPad Software, La Jolla, CA, USA).
Background: In a reporter assay the amount or activity of a reporter protein is the signal.

Setting [1] is: minimal remaining or maximum reporter activity after treatment, in brackets below the EC50, <1 agonism, >1 inverse agonism.

The values that follow come from patent EP4650002A1 (Ludwig-Maximilians-Universität, priority 2024, dated 2025).

T1 sequence (Q9Y466 155-383 limits assumed): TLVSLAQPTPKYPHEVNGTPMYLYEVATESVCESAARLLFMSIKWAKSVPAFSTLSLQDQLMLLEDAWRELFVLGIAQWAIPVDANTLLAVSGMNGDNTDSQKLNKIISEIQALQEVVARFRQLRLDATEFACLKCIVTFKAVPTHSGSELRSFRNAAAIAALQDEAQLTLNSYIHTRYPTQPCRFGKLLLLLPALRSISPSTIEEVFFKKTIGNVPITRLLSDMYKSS

Broadly, the EC50 is the concentration that produces a half-maximal response. For `Cc1ncc(-c2cc(N)cc(C(F)(F)F)c2)cn1` [compound 68, 3-(2-methylpyrimidin-5-yl)-5-(trifluoromethyl)aniline], the EC50 is 15 ± 6 µM. Under setting [1], this compound had a relative reporter activity of 0.34±0.09.

`Cc1cc(-c2cc(N)c3cn[nH]c3c2)ccn1` [compound 117]: the concentration for a half-maximal effect (EC50) amounted to 7.9 ± 1.5 µM. For the same compound, under setting [1], the relative reporter activity was found to be 0.31±0.03.

For the compound `Cn1cc(-c2cc(N)cc(C(F)(F)F)c2)c2cccnc21` [compound 52, 3-(1-methyl-1H-pyrrolo[2,3-b]pyridin-3-yl)-5-(trifluoromethyl)aniline], the EC50 is 3.5 ± 0.8 µM.

Compound `Nc1cc(-n2ccnc2)cc(C(F)(F)F)c1` [compound 33, 3-(1H-imidazol-1-yl)-5-(trifluoromethyl)aniline] gave an EC50 of 4.4 ± 0.9 µM.

`Cc1cc(-c2cc(N)cc(C(F)(F)F)c2)cs1` [compound 59, 3-(5-methylthiophen-3-yl)-5-(trifluoromethyl)aniline] yielded a relative reporter activity (at 30 µM) of 2.8±0.5.

Take `Cn1ncc2cc(-c3cc(N)cc(C(F)(F)F)c3)ccc21` [compound 97, 3-(1-methyl-1H-indazol-5-yl)-5-(trifluoromethyl)aniline]: a half-maximal response (EC50) required 1.6 ± 0.9 µM.

Take `Cc1cc(-c2cc(N)cc(C(F)(F)F)c2)n[nH]1` [compound 43, 3-(5-methyl-1H-pyrazol-3-yl)-5-(trifluoromethyl)aniline]: the relative reporter activity entry (at 100 µM) is “(0.29±0.05 at 100 µM)”.

In the case of `Cc1cc(-c2cc(N)cc(OC(F)(F)F)c2)ccn1` [compound 113, 3-(2-methylpyridin-4-yl)-5-(trifluoromethoxy)aniline], the EC50 worked out at 13.6 ± 0.6 µM.

Consider `Cc1cn(-c2cc(NC(=O)c3cccc4ccccc34)cc(C(F)(F)F)c2)cn1` [compound 6, N-(3-(4-methyl-1H-imidazol-1-yl)-5-(trifluoromethyl)phenyl)-1-naphthamide], for which the relative reporter activity entry (at 3 µM) is listed as “(0.79±0.03 at 3 µM)”.

As to `CC(=O)c1nc(-c2cc(N)cc(C(F)(F)F)c2)cs1` [compound 65, 1-(4-(3-Amino-5-(trifluoromethyl)phenyl)thiazol-2-yl)ethan-1-one], under setting [1], the relative reporter activity is on record as 0.26±0.05.

With `Cc1cc(-c2cc(N)cc(Cl)c2Cl)ccn1` [compound 114, 3,4-dichloro-5-(2-methylpyridin-4-yl)aniline], the EC50 came to 9.6 ± 0.7 µM.

With `Cc1cc(C)c(-c2cc(N)cc(C(F)(F)F)c2)s1` [compound 56, 3-(3,5-dimethylthiophen-2-yl)-5-(trifluoromethyl)aniline], the relative reporter activity (at 50 µM) is 3.4±0.3.

The compound `Cc1cn(-c2cc(NC(=O)c3ccc(Cl)c4ccccc34)cc(C(F)(F)F)c2)cn1` [compound 31, 4-chloro-N-(3-(4-methyl-1H-imidazol-1-yl)-5-(trifluoromethyl)phenyl)-1-naphthamide] returned an EC50 of 1.8 ± 0.4 µM. Under setting [1], this compound gave a relative reporter activity of 0.34±0.11.

With `Cc1cn(-c2cc(NC(=O)c3ccncc3)cc(C(F)(F)F)c2)cn1` [compound 11, N-(3-(4-methyl-1H-imidazol-1-yl)-5-(trifluoromethyl)phenyl)isonicotinamide], the relative reporter activity entry (at 20 µM) is “(0.41±0.05 at 20 µM)”.

For the compound `Cc1cnc(-c2cc(N)cc(C(F)(F)F)c2)s1` [compound 54, 3-(5-methylthiazol-2-yl)-5-(trifluoromethyl)aniline], the relative reporter activity entry (at 30 µM) is listed as “(0.46±0.21 at 30 µM)”.

For the compound `Cc1cn(-c2cccc(N)c2)cn1` [compound 101, 3-(4-methyl-1H-imidazol-1-yl)aniline], under “at 30 µM”, the relative reporter activity result was “inactive at 30 µM”.

On to `Cc1cc(-c2cc(N)cc(C(F)(F)F)c2)nn1C` [compound 45, 3-(1,5-dimethyl-1H-pyrazol-3-yl)-5-(trifluoromethyl)aniline], for which the relative reporter activity result (at 100 µM) is “(0.56±0.12 at 100 µM)”.

`Cn1ccc2c(-c3cc(N)cc(C(F)(F)F)c3)cccc21` [compound 100, 3-(1-Methyl-1H-indol-4-yl)-5-(trifluoromethyl)aniline] showed an EC50 of 18 ± 1 µM. Further, where the note is “at 10 µM”, the relative reporter activity stood at 0.55±0.06.

With `CN(C)c1ccc(-c2cc(N)cc(C(F)(F)F)c2)cc1` [compound 95, N4',N4'-dimethyl-5-(trifluoromethyl)-[1,1'-biphenyl]-3,4'-diamine], under “at 20 µM”, the relative reporter activity entry was “(0.41±0.11 at 20 µM)”.

For the compound `Cc1cc(-c2cc(N)c3cc[nH]c3c2)ccn1` [compound 116, 6-(2-methylpyridin-4-yl)-1H-indol-4-amine], the relative reporter activity result (at 50 µM) was “inactive at 50 µM”.

Turning to `Nc1cc(-n2cnc3ccccc32)cc(C(F)(F)F)c1` [compound 35, 3-(1H-benzo[d]imidazol-1-yl)-5-(trifluoromethyl)aniline], the response was half-maximal at 2.4 ± 0.9 µM (EC50).

Take `Cc1cc(-c2cc(N)ccc2C(F)(F)F)ccn1` [compound 107, 3-(2-methylpyridin-4-yl)-4-(trifluoromethyl)aniline]: the relative reporter activity entry (at 50 µM) is given as “(0.39±0.04 at 50 µM)”.

With `Cc1nc(-c2cc(N)cc(C(F)(F)F)c2)cn1C` [compound 50, 3-(1,2-dimethyl-1H-imidazol-4-yl)-5-(trifluoromethyl)aniline], the relative reporter activity result (at 100 µM) was “(0.70±0.06 at 100 µM)”.

`CC(=O)c1cc(-c2cc(N)cc(C(F)(F)F)c2)cs1` [compound 60, 1-(4-(3-amino-5-(trifluoromethyl)phenyl)thiophen-2-yl)ethan-1-one] yielded a 50% effective concentration (EC50) of 0.7 ± 0.3 µM. The compound further came in with a relative reporter activity under setting [1] of 0.24±0.07.

In turn, `CC(=O)c1ccc(-c2ccnc(C)c2)cc1N` [compound 112, 1-(2-amino-4-(2-methylpyridin-4-yl)phenyl)ethan-1-one] showed a concentration giving a half-maximal response (EC50) of 18 ± 10 µM. Under setting [1], the relative reporter activity was found to be 0.58±0.09.

`Nc1cc(-n2cccc2)cc(C(F)(F)F)c1` [compound 34, 3-(1H-pyrrol-1-yl)-5-(trifluoromethyl)aniline] displayed an EC50 of 15 ± 7 µM. Further, the relative reporter activity under setting [1] was 0.23±0.15.

For the compound `Cc1ccc(C(=O)Nc2cc(-n3cnc(C)c3)cc(C(F)(F)F)c2)cc1` [compound 18, 4-methyl-N-(3-(4-methyl-1H-imidazol-1-yl)-5-(trifluoromethyl)phenyl)benzamide], the response was half-maximal at 1.4 ± 0.7 µM (EC50). Further, the relative reporter activity under setting [1] was found to be 0.59±0.06.

`O=C(Nc1cc(-n2cnc3ccccc32)cc(C(F)(F)F)c1)c1ccnc2ccccc12` [compound 36, N-(3-(1H-benzo[d]imidazol-1-yl)-5-(trifluoromethyl)phenyl)quinoline-4-carboxamide]: for the setting “at 10 µM”, the relative reporter activity result was “(0.24±0.04 at 10 µM”.

`Cc1cc(-c2cc(N)ccc2OC(F)(F)F)ccn1` [compound 110, 3-(2-methylpyridin-4-yl)-4-(trifluoromethoxy)aniline] yielded an EC50 of 16 ± 10 µM. The same compound came in with a relative reporter activity under setting [1] of 0.34±0.09.

As to `CC(=O)c1cncc(-c2cc(N)cc(C(F)(F)F)c2)c1` [compound 70, 1-(5-(3-amino-5-(trifluoromethyl)phenyl)pyridin-3-yl)ethan-1-one], the concentration giving a half-maximal response (EC50) is 4.6 ± 2.4 µM.

Turning to `Cc1cn(-c2cc(NC(=O)Cc3cccnc3)cc(C(F)(F)F)c2)cn1` [compound 21, N-(3-(4-methyl-1H-imidazol-1-yl)-5-(trifluoromethyl)phenyl)-2-(pyridin-3-yl)acetamide], the concentration giving a half-maximal response (EC50) was found to be 1.4 ± 0.3 µM. The compound further showed a relative reporter activity under setting [1] of 0.21±0.07.

Regarding `CC(=O)c1cc(-c2cc(N)cc(C(F)(F)F)c2)ccn1` [compound 87, 1-(4-(3-amino-5-(trifluoromethyl)phenyl)pyridin-2-yl)ethan-1-one], the EC50 is 4.6 ± 2.1 µM. This compound displayed a relative reporter activity under setting [1] of 0.30±0.05.

Regarding `Cc1cc(-c2cc(NC(=O)c3ccnc4ccccc34)cc(C(F)(F)F)c2)ccn1` [compound 75, N-(3-(2-methylpyridin-4-yl)-5-(trifluoromethyl)phenyl)quinoline-4-carboxamide], the concentration for a half-maximal effect (EC50) worked out at 0.41 ± 0.11 µM. The relative reporter activity under setting [1] turned out to be 0.26±0.05.

In the case of `Nc1cc(-c2ccc3[nH]ccc3c2)cc(C(F)(F)F)c1` [compound 93, 3-(1H-indol-5-yl)-5-(trifluoromethyl)aniline], the EC50 turned out to be 1.4 ± 0.4 µM.

In turn, `Cc1cc(-c2cc(NC(=O)c3cc4ccccc4s3)cc(C(F)(F)F)c2)ccn1` [compound 81, N-(3-(2-methylpyridin-4-yl)-5-(trifluoromethyl)phenyl)benzo[b]thiophene-2-carboxamide] yielded an EC50 of 1.2 ± 0.2 µM. For the same compound, the relative reporter activity under setting [1] is 0.39±0.05.

Compound `Nc1cc(-c2cncnc2)cc(C(F)(F)F)c1` [compound 66, 3-(pyrimidin-5-yl)-5-(trifluoromethyl)aniline] showed an EC50 of 2.1 ± 0.5 µM. In addition, the relative reporter activity under setting [1] was found to be 0.40±0.06.

In turn, `COc1cc(N)cc(-c2ccnc(C)c2)c1` [compound 108, 3-methoxy-5-(2-methylpyridin-4-yl)aniline] had a half-maximal effective concentration (EC50) of 15 ± 4 µM.
